The nature of data set [1]: logD7.4 in octanol/buffer mixture. The conditions noted are these: pH 7.4, room temperature. Type of data set: physicochemical.
Data set [2] in a line: Radiochemical stability of the formulated product on standing at room temperature. Type of data set: physicochemical. The following applies: after standing for 90 min at room temperature.

The structures appear in SMILES notation. A value given as a limit tells only on which side of the number the result lay.

As a reminder, the logD is lipophilicity at a set pH, counting ionised and neutral species. Take `O=C(Cc1ccccc1)Nc1nnc(CCSCCc2nnc(N[11C](=O)Cc3ccccc3)s2)s1` [[^11C]BPTES]: the logD in data set [1] was found to be 3.59. Also, the “radiochemical purity after standing” value in data set [2] is above 95%.
